From paper PMC7917659, “Selective Cytotoxicity of Complexes with N,N,N-Donor Dipodal Ligand in Tumor Cells” (International Journal of Molecular Sciences, 2021)
Entries after “also recorded” stand apart in the source; their conditions may differ. Where two headings read alike, the source gives them in different places.

Columns and labels:
CHO-K1 cells [1] = assay: Apoptosis and necrosis detection by flow cytometry, noncancerous cells; format: cell-based; conditions: CHO-K1, 50 µM/L, 24 h, Annexin V/EthD-III flow cytometry
Method: (§1) For flow cytometry analyses, CHO-K1 and Hep G2 cells were plated in triplicates into 6-well plates (Sarstedt) at a density of 2 × 10^4 cells per well. The cells were treated for 24 h with tested complexes/comparator salts at concentration of 50 µM/L. Control cells were exposed to DMSO (1% v/v)for 24 h. Then, the cells were detached using Trypsin-EDTA solution, washed with buffered PBS (Lonza, Walkersville, MD, USA), centrifuged at 350× g for 5 min and suspended in binding buffer. Flow cytometry analysis was performed according to the manufacturer’s instructions (Biotium, Hayward, CA, USA). Fluorescent dyes, 488-AnnexinV (excitation maximum at 490 nm/emission maximum at 515 nm) and/or Ethidium homodimer (EthD-III; excitation maximum at 528 nm/emission maximum at 617 nm) were added to cell suspensions. To correct discrimination between cells and debris, SYTO 41 Blue Fluorescent Nucleic Acid Stain was used (excitation maximum at […]). The cells were incubated in dark for 15 min with appropriate dye/dyes and analysed using flow cytometer FACSCanto10C with BD FACSDiva 8.1 System Software (BD Biosciences Immunocytometry Systems, San Jose, CA, USA). The cells were gated according to forward (FSC), side scatter (SSC) and fluorescence parameters (FITC channel was used for 488-AnnexinV and Texas Red channel was used for EthD-III). The results are given as the percentage of apoptotic or necrotic cells of total counted cells.

HepG2 cells [2] = assay: Cell growth assessment (cell counting), tumour cells; format: cell-based; conditions: HepG2, 50 µM/L, 72 h incubation
Method: (§2) For experiments, the cells were seeded at low density (3 × 10^3/mL) into the 6-well plates (Sarstedt, Numbrecht, Germany) and kept for 24 h. Then, the medium was replaced for new one, containing 50 µM/L of tested compound or 1% v/v of DMSO (control). The time points of incubations were set at 24, 48 or 72 h. At the end of each experiment, the cells were gently detached with Trypsin-EDTA solution (Life Technologies), suspended with appropriate growth medium with addition of 10% v/v FBS and centrifuged at 350× g for 5 min. Finally, the cells were suspended in buffered PBS (Sigma-Aldrich) and counted.

CHO-K1 cells [3] = assay: Antiproliferative MTT assay, noncancerous cells; format: cell-based; conditions: 72 h exposure, M ± SD, n = 3
Hep G2 cells [4] = assay: Antiproliferative MTT assay, tumour cells; format: cell-based; conditions: for IC50: MTT assay, 72 h exposure, M ± SD, n = 3, read-out: IC50 for Cancer HEP G2 Cells
CHO-K1 cells [5] = assay: Trypan blue exclusion test, noncancerous cells; format: cell-based; conditions: CHO-K1, 50 µM/L, 24 h exposure, p < 0.05 vs. control
Method: (§3) CHO-K1 and HepG2 cells were seeded into 6-well plates (Sarstedt, Numbrecht, Germany) at a density of 2 × 10^4 cells/well and then incubated for 24 h. The cell monolayers were washed with PBS solution (Sigma-Aldrich) and medium in each well was replaced with a new one, with addition of 50 µM/L of tested compound. Then, the cells were incubated in standard conditions for 24, 48 or 72 h. The cells cultured in the medium with addition of 1% v/v DMSO (Sigma-Aldrich) were positive controls (100% of growth). After incubation, the cells were detached using Trypsin-EDTA solution (Life Technologies) and suspended in buffered PBS (Sigma-Aldrich). Trypan Blue Exclusion dye (0.4% v/v, Sigma-Aldrich, Germany) was added to each cell culture and samples were kept at room temperature for 5 min. Then, the numbers of live cells (unstained) and dead cells (blue) in each population exposed to tested chemicals/dissolvent were measured with an automatic cell counter.

vimentin (Vim) mRNA = assay: Real-Time PCR (qPCR) gene expression in Hep G2 cells, vimentin; format: cell-based, human; conditions: Hep G2, 50 μM/L, 24 h, normalized to GAPDH
Method: (§4) Hep G2 cells were used to establish cell cultures (2 × 10^4 cells/well). After 24 h of incubation with chemicals at concentration of 50 µM/L or with 1% v/v DMSO (control), the cells were suspended in RL buffer (EURx, Gdansk, Poland) and the total RNA was extracted using Universal RNA purification Kit (EURx, Gdansk, Poland), according to the manufacturer’s protocol. For cDNA synthesis, MMLV reverse transcriptase (Promega, Madison, WI, USA) was used. The reverse transcription reaction was performed with ProFlex PCR System (Applied Biosystems, Foster City, CA, USA). The QuantStudio 7 Flex (Applied Biosystems, Foster City, CA, USA) was employed for the real-time PCR (qPCR). The following Taq-Man human probes (Applied Biosystems) were used for qPCR reaction: VEGFA (Hs00173626_m1), VIM (001855284_m1), MMP-2 (Hs00234422_m1), MMP-9 (Hs00234579_m1) and GAPDH (Hs99999905_m1). Blank qPCR Master Mix (EURx) was used according to the manufacturer’s instructions. Expression data were normalized on the mean housekeeping gene (GAPDH) as a reference. mRNA expressions were obtained with the 2^−ΔΔCt method and relative expression values were presented, as previously published.

[6] = tested on: vascular endothelial growth factor a (VEGFa) mRNA; assay: Real-Time PCR (qPCR) gene expression in Hep G2 cells, VEGFa; format: cell-based, human; conditions: Hep G2, 50 μM/L, 24 h, normalized to GAPDH
Method: as §4

HepG2 cells [7] = assay: Trypan blue exclusion test, tumour cells; format: cell-based; conditions: HepG2, 50 µM/L, p < 0.01 vs. control; for Viable cells vs. control (trypan blue exclusion): 24 h exposure; for Cytotoxicity / cell viability vs. control (trypan blue exclusion): 72 h exposure
Method: as §3

[8] = tested on: Glutathione Peroxidase (GPx); assay: Extracellular glutathione peroxidase activity in CHO-K1 culture medium; format: cell-based
Method: (§5) Glutathione peroxidase (GPx) activity was assayed spectrophotometrically in culture medium and enzyme function against reactive oxygen species was investigated according to Adachi et al., Comhair et al. and Howie et al. with modification of Zagrodzki, using hydrogen peroxide (H2O2) as a substrate. For experiment, cell cultures of CHO-K1 and Hep G2 cells were established with initial density of the cells as 2 × 10^4 cells/well. Then, the cells were exposed to 50 µM/L of each chemical for 24 h (control cells were incubated with 1% v/v of DMSO) and cell media were collected. Briefly, the samples were incubated with mixture of sodium azide, glutathione reductase, glutathione, reduced β-nicotinamide adenine dinucleotide phosphate (NADPH) and sodium phosphate (pH 7.6) for 2 min at 25 °C and the reaction was initiated by the addition of H2O2. NADPH was converted to NADP and the amount of the product was proportional to GPx activity. The decrease in absorbance at 340 nm over 3 min was recorded using a microplate reader Infinite M200 Pro, Tecan, Austria. The mean value was calculated and expressed as U/L of the cell culture medium.

Hep G2 cells [9] = assay: Apoptosis and necrosis detection by flow cytometry, tumour cells; format: cell-based; conditions: Hep G2, 50 µM/L, 24 h, Annexin V/EthD-III flow cytometry
Method: as §1

[10] = tested on: Glutathione Peroxidase (GPx); assay: Extracellular glutathione peroxidase activity in Hep G2 culture medium; format: cell-based; conditions: HepG2 culture medium, 50 μM/L, 24 h
Method: as §5

CHO-K1 cells [11] = conditions: read-out: IC50 for Noncancerous CHO-K1 Cells, cited from earlier work
[12] = tested on: matrix metalloproteinase-9 (MMP-9) mRNA; assay: Real-Time PCR (qPCR) gene expression in Hep G2 cells, MMP-9; format: cell-based, human
Method: as §4

[13] = tested on: matrix metalloproteinase-2 (MMP-2) mRNA; assay: Real-Time PCR (qPCR) gene expression in Hep G2 cells, MMP-2; format: cell-based, human
Method: as §4

CHO-K1 cells [14] = assay: Cell growth assessment (cell counting), noncancerous cells; format: cell-based; conditions: CHO-K1, 50 µM/L, 72 h incubation
Method: as §2

Hep G2 cells [15] = tested on: Hep G2 cells; design: method as in doi:10.1039/C6RA06439F; conditions: read-out: IC50 for Cancer HEP G2 Cells, cited from earlier work
[16] = CHO-K1 culture medium, 50 μM/L, 24 h
[17] = MTT assay, 72 h exposure, M ± SD
[18] = Hep G2, 50 μM/L, 24 h, normalized to GAPDH

Structure (SMILES) | Cell death (apoptosis/necrosis) (CHO-K1 cells [1]) | IC50 (CHO-K1 cells [3]) | IC50 (Hep G2 cells [4]) | Antiproliferative Index IC50 CHO-K1/IC50 HEP G2 (Hep G2 cells [4]; ratio of MTT IC50 values, 72 h) | Viable cells vs. control (trypan blue exclusion) (CHO-K1 cells [5]) | Vim mRNA expression vs. control (vimentin (Vim) mRNA) | VEGFa mRNA expression vs. control [6] | Viable cells vs. control (trypan blue exclusion) (HepG2 cells [7]) | Cytotoxicity / cell viability vs. control (trypan blue exclusion) (HepG2 cells [7]) | GPx activity vs. control [8, 16] | Necrosis (Hep G2 cells [9]) | GPx activity vs. control [10] | MMP-9 mRNA expression vs. control [12, 18] | Apoptosis (Hep G2 cells [9]) | MMP-2 mRNA expression vs. control [13, 18] | Antiproliferative Index IC50 CHO-K1/IC50 HEP G2 (Hep G2 cells [4]) | also measured
CO.Cc1cc(C)n(CNCn2nc(C)cc2C)n1.Cc1cc(C)n(CNCn2nc(C)cc2C)n1.[Co+2].[I-].[I-] [Complex 1, [Co(L^D)2]I2∙CH3OH] | minor | 122 ± 10 µM | 22 ± 4 µM | 5.5 | statistically significant decrease in viable cells | decreased Vim expression | significantly hampered VEGFa expression | statistically significant decrease in viable cells | statistically significant toxic effect; also recorded: greatest decrease in Hep G2 cell viability | elevated the enzyme activity | caused mainly necrotic cell death |  |  |  |  |  | Cell growth vs. control (HepG2 cells [2]): greatest inhibitory effect
O=S(=O)([O-])[O-].[O]=[V+2] [VOSO4, reference compound] |  |  | 75.6 ± 8 µM | 1.3 |  |  |  |  |  |  |  | elevated the enzyme activity | did not exert any effect | much weaker than complex 3 | did not exert any effect |  | IC50 (CHO-K1 cells [11]; [17]): 98.3 ± 9 µM
Cc1cc(C)n(CNCn2nc(C)cc2C)n1.[Co+2].[N-]=C=S.[N-]=C=S [Complex 2, [CoL^D(NCS)2]] | minor | 268 ± 15 µM | 38.2 ± 5 µM |  | statistically significant decrease in viable cells |  | significantly hampered VEGFa expression | statistically significant decrease in viable cells | statistically significant toxic effect | elevated the enzyme activity | caused mainly necrotic cell death |  |  |  |  | 7.0 | Cell growth vs. control (CHO-K1 cells [14]): lowest inhibitory potency
Cc1cc(C)n(CNCn2nc(C)cc2C)n1.Cc1ccccc1.[N-]=C=S.[N-]=C=S.[O]=[V+2] [Complex 3, [VOL^D(NCS)2]∙C6H5CH3] | minor | 123 ± 3 µM | 45.6 ± 5 µM | 2.7 | statistically significant decrease in viable cells | decreased Vim expression | significantly hampered VEGFa expression | statistically significant decrease in viable cells | statistically significant toxic effect | did not disturb antioxidant enzyme activity |  | decreased GPx activity | greatest inhibitory effect | most active promotor of apoptosis | greatest inhibitory effect |  | 
N.N.[Cl][Pt][Cl] [Cisplatin, cisplatin, reference compound] |  | 19.1 ± 2 µM |  | 0.9 |  |  |  |  |  |  |  |  |  |  |  |  | IC50 (Hep G2 cells [15]; [17]): 21.3 ± 2 µM
[Cl-].[Cl-].[Co+2] [CoCl2] |  |  |  |  |  |  |  |  |  |  |  |  |  |  |  | 1.1 | IC50 (Hep G2 cells [15]): 160 µM; IC50 (CHO-K1 cells [11]): 176 µM; MMP-9 mRNA expression vs. control [12]: did not changed transcript level for MMP-9; GPx activity vs. control [8]: did not exert any effect; MMP-2 mRNA expression vs. control [13]: decreased mRNA for MMP-2
